For 22 molecules, inhibition and IC50 results are on record in patent US8487121B2, “Chromane derivatives as TRPV3 modulators” (Glenmark Pharmaceuticals S.A., priority 2007, dated 2013).

pIC50: −log10 of the molar value.

The assay has as its target T1, Human TRPV3 (Homo sapiens, UniProt Q8NET8).
T1 construct: expressed in transfected cells; host or cells: CHO cells (G-418 selected)
T1 sequence (Q8NET8 1-790): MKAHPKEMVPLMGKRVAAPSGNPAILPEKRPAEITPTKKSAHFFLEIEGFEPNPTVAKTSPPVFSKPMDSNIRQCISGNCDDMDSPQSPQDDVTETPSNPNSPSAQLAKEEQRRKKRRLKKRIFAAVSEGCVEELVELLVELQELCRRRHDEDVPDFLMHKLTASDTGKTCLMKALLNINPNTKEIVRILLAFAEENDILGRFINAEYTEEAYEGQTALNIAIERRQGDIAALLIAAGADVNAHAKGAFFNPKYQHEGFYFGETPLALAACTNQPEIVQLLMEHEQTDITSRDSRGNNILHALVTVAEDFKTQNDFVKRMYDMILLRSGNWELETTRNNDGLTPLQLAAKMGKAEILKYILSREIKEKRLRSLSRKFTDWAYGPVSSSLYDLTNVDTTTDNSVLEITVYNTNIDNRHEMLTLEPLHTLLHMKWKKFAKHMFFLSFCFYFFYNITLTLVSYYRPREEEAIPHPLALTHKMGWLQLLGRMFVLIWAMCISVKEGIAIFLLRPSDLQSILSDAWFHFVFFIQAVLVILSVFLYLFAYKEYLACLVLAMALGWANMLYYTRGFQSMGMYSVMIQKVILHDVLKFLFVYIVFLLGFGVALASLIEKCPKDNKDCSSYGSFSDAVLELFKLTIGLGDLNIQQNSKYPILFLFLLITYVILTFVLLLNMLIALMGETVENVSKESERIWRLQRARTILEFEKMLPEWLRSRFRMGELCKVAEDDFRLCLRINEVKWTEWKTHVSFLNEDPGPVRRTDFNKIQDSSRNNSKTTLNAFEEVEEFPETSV
Nature of the assay: 45Calcium uptake assay: inhibition of 2-APB induced cellular uptake of radioactive calcium. In kind it is cell-based. As to conditions: human TRPV3 expressing CHO cells, 2-APB 500 μM; for inhibition at 1 µM: 1.0 μM compound, read-out: Percentage inhibition at 1.0 μM; for inhibition at 10 µM: 10.0 μM compound, read-out: Percentage inhibition at 10.0 μM. An excerpt: The illustrative examples of the present invention are screened for TRPV3 activity according to a modified procedure described in Toth, A. et al. Life Sciences (2003), 73, 487-498. The screening of the compounds can be carried out by other methods and procedures known to a person skilled in the art. Such screening methods may be found in Hu, H-Z., et al. J. Biol. Chem. (2004), 279, 35741-35748; Smith, G. D et al. Nature (2002), 418, 186-190 and Peier, A. M., et al. Science (2002), 296, 2046-2049.
Screening for TRPV3 Antagonist Using the ^45Calcium Uptake Assay:
The inhibition of TRPV3 receptor activation was followed as inhibition of 2-APB induced cellular uptake of radioactive calcium. Test compounds were dissolved in DMSO to prepare 20 mM stock and then diluted using plain medium with 0.1% BSA and 1.8 mM CaCl2 to get desired concentration. Final concentration of DMSO in the reaction was 0.5% (v/v). Human TRPV3 expressing CHO cells were grown in F-12 DMEM medium with 10% FBS, 1% penicillin-streptomycin solution, 400 μg/ml of G-418. Cells were seeded 24 h prior to the assay in 96 well plates so as to get ˜50,000 cells per well on the day of experiment. Cells were treated with test compounds for 10 minutes followed by addition of 2-APB at a final concentration of 500 μM and 5 μCi/ml ^45Ca^+2 for 4 minutes. Cells were washed and lysed using buffer containing 1% Triton X-100, 0.1% deoxycholate and 0.1% SDS. Radioactivity in the lysate was measured in Packardt Top count after addition of liquid scintillant.
Concentration response curves were plotted as a % of maximal response obtained in the absence of test antagonist. IC50 value was calculated from concentration response curve by nonlinear regression analysis using GraphPad PRISM software.
Percentage inhibition at concentrations of 1.0 μM and 10.0 μM are given in the table along with IC50 (nM) values for selected examples.

As a reminder, the inhibition is the drop in the measured response relative to a control, in per cent. What is called pIC50 is the IC50 on a negative log10 scale, so that one unit is a factor of ten. Take `COc1cccc(CCC(=O)N[C@H]2CC3(CCC3)Oc3ccc(Cl)cc32)c1OC1CCCC1` [Example 43]: the inhibition at 1 µM worked out at 64.6%, the inhibition at 10 µM came to 91.7% and the pIC50 was 6.00 to 6.30.

Turning to `COc1ccc(CC(=O)NC2CC3(CCC3)Oc3ccc(Cl)cc32)cc1OC` (stereo not drawn) [Example 7, N-(6-Chloro-3,4-dihydrospiro[chromene-2,1′-cyclobutan]-4-yl)-2-(3,4-dimethoxyphenyl)acetamide], the inhibition at 1 µM came to 9.2% and the inhibition at 10 µM amounted to 20.3%.

In the case of `COc1ccc(C(=O)CCC(=O)NC2CC3(CCC3)Oc3ccc(Cl)cc32)c2ccccc12` (stereo not drawn) [Example 101, N-(6-Chloro-3,4-dihydrospiro[chromene-2,1′-cyclobutan]-4-yl)-4-oxo-4-(4-methoxy-naphthyl)butanamide], the inhibition at 1 µM was determined as 26.5% and the inhibition at 10 µM stood at 63.2%.

As to `COc1ccc2ccccc2c1CCC(=O)N[C@@H]1CC2(CCC2)Oc2ccc(Cl)cc21` [Example 67], the inhibition at 1 µM worked out at 17% and the inhibition at 10 µM turned out to be 84.7%.

As for `COc1ccccc1CC(=O)NC1CC2(CCC2)Oc2ccc(Cl)cc21` (stereo not drawn) [Example 2, N-(6-Chloro-3,4-dihydrospiro[chromene-2,1′-cyclobutan]-4-yl)-2-(2-methoxyphenyl)-acetamide], the inhibition at 1 µM came to 12%, the inhibition at 10 µM worked out at 79% and the negative logarithm of the IC50 (pIC50) was < 5.70.

Take `O=C(CCc1ccccc1OC1CCCC1)NC1CC2(CCC2)Oc2ccc(Cl)cc21` (stereo not drawn) [Example 28, N-(6-Chloro-3,4-dihydrospiro[chromene-2,1′-cyclobutan]-4-yl)-3-(2-cyclopentyloxyphenyl)propanamide]: the inhibition at 1 µM is 58% and the inhibition at 10 µM stood at 84.3%.

Take `COc1ccc(C(O)CCC(=O)NC2CC3(CCC3)Oc3ccc(Cl)cc32)c2ccccc12` (stereo not drawn) [Example 102, N-(6-Chloro-3,4-dihydrospiro[chromene-2,1′-cyclobutan]-4-yl)-4-hydroxy-4-(4-methoxynaphthyl)butanamide]: the inhibition at 1 µM came to 26.6% and the inhibition at 10 µM was 42.8%.

`COc1cccc(CC(=O)N[C@@H]2CC3(CCC3)Oc3c(Cl)cccc32)c1OC1CCCC1` [Example 5, N-[(4R)-8-Chloro-3,4-dihydrospiro[chromene-2,1′-cyclobutan]-4-yl]-2-(2-cyclopentyloxy-3-methoxy)phenylacetamide]: the inhibition at 1 µM was 11.7% and the inhibition at 10 µM is 86.8%.

With `COc1ccc2[nH]c(C)c(CC(=O)NC3CC4(CCC4)Oc4ccc(Cl)cc43)c2c1` (stereo not drawn) [Example 25, N-(6-Chloro-3,4-dihydrospiro[chromene-2,1′-cyclobutan]-4-yl)-2-(5-methoxy-2-methyl-1H-indol-3-yl)acetamide], the inhibition at 1 µM came out at 19% and the inhibition at 10 µM worked out at 48%.

Turning to `COc1cccc(CCCC(=O)NC2CC3(CCC3)Oc3ccc(Cl)cc32)c1OC1CCCC1` (stereo not drawn) [Example 92, N-(6-Chloro-3,4-dihydrospiro[chromene-2,1′-cyclobutan]-4-yl)-4-[2-(cyclopentyloxy)-3-methoxyphenyl]butanamide], the inhibition at 1 µM was 86.1%, the inhibition at 10 µM is 95.8% and the pIC50 is > 6.30.

Consider `O=C(CCc1ccc(OC(F)F)c2ccccc12)N[C@H]1CC2(CCC2)Oc2ccc(Cl)cc21` [Example 72, (4S)-6-Chloro-N-(3,4-dihydrospiro[chromene-2,1′-cyclobutan]-4-yl)-3-(4-difluoromethoxy-1-naphthyl)propanamide], for which the inhibition at 1 µM stood at 60.3%, the inhibition at 10 µM was found to be 93.3% and the negative-log IC50 (pIC50) is 6.00 to 6.30.

On to `O=C(Cc1cccc2ccccc12)N[C@H]1CC2(CCC2)Oc2c(Cl)cccc21` [Example 16, N-[(4S)-8-Chloro-3,4-dihydrospiro[chromene-2,1′-cyclobutan]-4-yl]-2-(1-naphthyl)-acetamide], for which the inhibition at 1 µM was 0% and the inhibition at 10 µM stood at 35.2%.

Regarding `COc1cccc(CCC(=O)NC2CC3(CCC3)Oc3cc(C)c(Cl)cc32)c1OC1CCCC1` (stereo not drawn) [Example 49, N-(6-Chloro-7-methyl-3,4-dihydrospiro[chromene-2,1′-cyclobutan]-4-yl)-3-(2-cyclo-pentyloxy-3-methoxy)phenylpropanamide], the inhibition at 1 µM is 35.4% and the inhibition at 10 µM is 70.1%.

With `Cc1cccc(CCC(=O)N[C@@H]2CC3(CCC3)Oc3ccc(Cl)cc32)c1OC1CCCC1` [Example 53, (4R)-6-Chloro-N-(3,4-dihydrospiro[chromene-2,1′-cyclobutan]-4-yl)-3-(2-cyclopentyloxy-3-methyl)phenylpropanamide], the inhibition at 1 µM came out at 61.9%, the inhibition at 10 µM was 91.4% and the pIC50 was 6.00 to 6.30.

In the case of `COc1cccc(CCCC(=O)N[C@@H]2CC3(CCC3)Oc3ccc(Cl)cc32)c1OC1CCCC1` [Example 93, N-(4R)-6-Chloro-3,4-dihydrospiro[chromene-2,1′-cyclobutan]-4-yl-4-(2-cyclopentyloxy-3-methoxyphenyl)butanamide], the inhibition at 1 µM came out at 72.8%, the inhibition at 10 µM was 94.2% and the pIC50 was 6.00 to 6.30.

On to `O=C(Cc1cccc2ccccc12)N[C@@H]1CC2(CCC2)Oc2c(F)cc(F)cc21` [Example 11, N-[(4R)-6,8-difluoro-3,4-dihydrospiro[chromene-2,1′-cyclobutan]-4-yl]-2-(1-naphthyl)acetamide], for which the inhibition at 1 µM is 23.6% and the inhibition at 10 µM turned out to be 76%.

With `O=C(Cc1ccc2ccccc2c1)NC1CC2(CCC2)Oc2ccc(Cl)cc21` (stereo not drawn) [Example 18, N-(6-Chloro-3,4-dihydrospiro[chromene-2,1′-cyclobutan]-4-yl)-2-(2-naphthyl)acetamide], the inhibition at 1 µM was determined as 36.1% and the inhibition at 10 µM was 72.3%.

Consider `COc1cccc(CCC(=O)NC2CC3(CCC3)Oc3ccc(Cl)cc32)c1OC(C)C` (stereo not drawn) [Example 39, N-(6-Chloro-3,4-dihydrospiro[chromene-2,1′-cyclobutan]-4-yl)-3-(2-isopropoxy-3-methoxy)phenylpropanamide], for which the inhibition at 1 µM amounted to 73.8%, the inhibition at 10 µM was 97.5% and the pIC50 is 6.00 to 6.30.

In the case of `CCCCOc1c(CCC(=O)NC2CC3(CCC3)Oc3c(Cl)cc(Cl)cc32)cccc1NS(C)(=O)=O` (stereo not drawn) [Example 63, N-(6,8-Dichloro-3,4-dihydrospiro[chromene-2,1′-cyclobutan]-4-yl)-3-{2-butoxy-3-[(methylsulfonyl)amino]phenyl}propanamide], the inhibition at 1 µM came to 73.3% and the inhibition at 10 µM was determined as 97%.

As to `CC(C)Oc1c(CCC(=O)NC2CC3(CCC3)Oc3c(Cl)cccc32)cccc1NS(C)(=O)=O` (stereo not drawn) [Example 58, N-(8-Chloro-3,4-dihydrospiro[chromene-2,1′-cyclobutan]-4-yl)-3-{2-isopropoxy-3-[(methylsulfonyl)amino]phenyl}propanamide], the inhibition at 1 µM was 61.7% and the inhibition at 10 µM was determined as 98.7%.

For the molecule `COc1ccc2cc(CCC(=O)N[C@H]3CC4(CCC4)Oc4ccc(Cl)cc43)ccc2c1` [Example 75], the inhibition at 1 µM turned out to be 46.6% and the inhibition at 10 µM came to 90.4%.

Turning to `COc1cccc(CCC(=O)NC2CC3(CCCCC3)Oc3ccc(Cl)cc32)c1OC1CCCC1` (stereo not drawn) [Example 87, N-(6-Chloro-3,4-dihydrospiro[chromene-2,1′-cyclohexan]-4-yl)-3-(2-cyclopentyloxy-3-methoxy)phenylpropanamide], the inhibition at 1 µM came to 26.7% and the inhibition at 10 µM came out at 67.3%.
